Assay results reported in article PMC11477000, “Enantioselective Binding of Proton Pump Inhibitors to Alpha1-Acid Glycoprotein and Human Serum Albumin—A Chromatographic, Spectroscopic, and In Silico Study” (International Journal of Molecular Sciences, 2024).

Assays:
[1] = system: α1-acid glycoprotein (AGP); assay: HPLC on AGP-based chiral stationary phase (ChromTech Chiral-AGP column); format: binding, human; conditions: 10 mM pH 7 phosphate buffer, 25 °C
Method: HPLC using a protein-based chiral stationary phase is a fully automated method for obtaining rapid information about the binding of compounds to the respective proteins. Enantioseparation occurs in the case of unequal binding constants of the individual enantiomers to the immobilized proteins, thus allowing enantioselective binding to be characterized even when a racemic mixture was injected. As a preliminary step, the enantiospecific binding was investigated on columns containing AGP and HSA in various alcohol:buffer mixtures. A pH 7 phosphate buffer was employed as the aqueous part of the mobile phase, while for the organic part, three different alcohols were evaluated. […]
(§1) Chromatographic measurements were carried out on two separate HPLC systems. The AGP binding study was performed on a Waters 2695e chromatographic system paired with a Waters 2996 PDA detector, controlled by Empower 3 FR5 (Waters Corp., Milford, MA, USA), while the HSA binding study was performed on an Agilent 1100 HPLC system, consisting of an inline degasser (G1322A), a quaternary pump (G1311A), an automatic injector (G1329A) paired with sample thermostat (G1330A), a column thermostat (G1316A), and a diode array detector (G1315A) with Agilent Chemstation B04.03-SP2 software (Agilent, Bronnwald, Germany). For the binding studies, two protein-based chiral stationary phases were utilized. The chromatographic binding study for AGP was conducted on a ChromTech Chiral-AGP column (150 mm × 4.0 mm; ChromTech Ltd., Congleton, UK), while the binding study for HSA was performed on a Daicel Chiralpak HSA column (50 mm × 4.0 mm; Daicel Corp., Osaka, Japan). The detection wavelength was 210 nm for all measurements. The stock solutions of PPIs were prepared at a concentration of 1 mg/mL in MeOH. Subsequent dilutions were prepared using water. The injected samples were mixed and diluted from the stock solutions. The final concentration for the eutomer was 0.2 mg/mL, and for the distomer, it was 0.1 mg/mL. A volume of 2 μL was injected. To mitigate the instability of PPIs in aqueous solutions, the samples were kept at a temperature of 4 °C.

[2] = target: human serum albumin (HSA) (Homo sapiens, UniProt P02768); assay: HPLC on HSA-based chiral stationary phase (Daicel Chiralpak HSA column); format: binding; conditions: HSA column, 10 mM pH 7 phosphate buffer, 25 °C
Chain of human serum albumin (HSA) (P02768 25-609): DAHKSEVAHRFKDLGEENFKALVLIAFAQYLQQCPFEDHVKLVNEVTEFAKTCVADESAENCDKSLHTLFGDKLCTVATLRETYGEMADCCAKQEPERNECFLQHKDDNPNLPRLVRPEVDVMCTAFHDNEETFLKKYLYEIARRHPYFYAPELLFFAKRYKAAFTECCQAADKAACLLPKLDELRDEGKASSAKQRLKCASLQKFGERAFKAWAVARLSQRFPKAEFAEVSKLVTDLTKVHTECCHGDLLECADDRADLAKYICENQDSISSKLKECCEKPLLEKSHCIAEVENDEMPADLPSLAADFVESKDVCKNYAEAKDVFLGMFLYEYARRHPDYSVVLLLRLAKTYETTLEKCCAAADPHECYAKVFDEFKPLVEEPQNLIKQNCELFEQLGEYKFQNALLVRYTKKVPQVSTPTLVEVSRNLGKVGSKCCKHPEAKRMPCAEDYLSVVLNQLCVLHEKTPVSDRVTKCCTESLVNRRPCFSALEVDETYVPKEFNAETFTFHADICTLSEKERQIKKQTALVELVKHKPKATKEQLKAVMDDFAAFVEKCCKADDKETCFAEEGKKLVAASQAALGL
Method: HPLC using a protein-based chiral stationary phase is a fully automated method for obtaining rapid information about the binding of compounds to the respective proteins. Enantioseparation occurs in the case of unequal binding constants of the individual enantiomers to the immobilized proteins, thus allowing enantioselective binding to be characterized even when a racemic mixture was injected. As a preliminary step, the enantiospecific binding was investigated on columns containing AGP and HSA in various alcohol:buffer mixtures. A pH 7 phosphate buffer was employed as the aqueous part of the mobile phase, while for the organic part, three different alcohols were evaluated.
In the following step, we investigated the effect of changing some other chromatographic conditions on the protein binding. The pH of the aqueous phase influenced the protonation state of both the analyte and the proteins. It should be noted that the pH tolerance of protein-based columns is narrow due to the possible denaturation of proteins. Taking into account the guidelines of the manufacturer, three different pH values were investigated (pH 6, 6.5, and 7) at a 95:5 (v/v%) buffer:IPA eluents ratio [49]. The buffer was uniformly 10 mM phosphate. […] The effect of different buffer constituents was also evaluated. In addition to phosphate buffer, ammonium acetate, ammonium bicarbonate, and sodium citrate were tested and compared under the same conditions.
as §1

- k1 retention factor (first-eluting enantiomer) ([2]; 1% EtOH): 9.89
- k2 retention factor (second-eluting enantiomer) ([2]; 1% EtOH): 9.89
- k1 retention factor (first-eluting enantiomer) ([2]; 1% IPA): 9.53
- k2 retention factor (second-eluting enantiomer) ([2]; 1% IPA): 9.53
- k1 retention factor (first-eluting enantiomer) ([2]; 1% MeOH): 7.79
- k2 retention factor (second-eluting enantiomer) ([2]; 1% MeOH): 7.79
- k1 retention factor (first-eluting enantiomer) ([2]; 2.5% EtOH): 5.53
- k2 retention factor (second-eluting enantiomer) ([2]; 2.5% EtOH): 5.53
- k1 retention factor (first-eluting enantiomer) ([2]; 2.5% IPA): 8.66
- k2 retention factor (second-eluting enantiomer) ([2]; 2.5% IPA): 8.66
- k1 retention factor (first-eluting enantiomer) ([2]; 2.5% MeOH): 6.37
- k2 retention factor (second-eluting enantiomer) ([2]; 2.5% MeOH): 6.37
- k1 retention factor (first-eluting enantiomer) ([2]; 5% EtOH): 3.68
- k2 retention factor (second-eluting enantiomer) ([2]; 5% EtOH): 3.68
- k1 retention factor (first-eluting enantiomer) ([2]; 5% IPA): 4.34
- k2 retention factor (second-eluting enantiomer) ([2]; 5% IPA): 4.34
- k1 retention factor (first-eluting enantiomer) ([2]; 5% MeOH): 4.95
- k2 retention factor (second-eluting enantiomer) ([2]; 5% MeOH): 4.95
- k1 retention factor (first-eluting enantiomer) ([2]; 7.5% EtOH): 2.61
- k2 retention factor (second-eluting enantiomer) ([2]; 7.5% EtOH): 2.61
- k1 retention factor (first-eluting enantiomer) ([2]; 7.5% IPA): 2.82
- k2 retention factor (second-eluting enantiomer) ([2]; 7.5% IPA): 2.82
- k1 retention factor (first-eluting enantiomer) ([2]; 7.5% MeOH): 3.82
- k2 retention factor (second-eluting enantiomer) ([2]; 7.5% MeOH): 3.82
- k1 retention factor (first-eluting enantiomer) ([2]; 10% EtOH): 1.97
- k2 retention factor (second-eluting enantiomer) ([2]; 10% EtOH): 1.97
- k1 retention factor (first-eluting enantiomer) ([2]; 10% IPA): 2.03
- k2 retention factor (second-eluting enantiomer) ([2]; 10% IPA): 2.03
- k1 retention factor (first-eluting enantiomer) ([2]; 10% MeOH): 2.97
- k2 retention factor (second-eluting enantiomer) ([2]; 10% MeOH): 2.97
- k1 retention factor (first-eluting enantiomer) ([2]; 12.5% IPA): 1.50
- k2 retention factor (second-eluting enantiomer) ([2]; 12.5% IPA): 1.50
Compound: COc1ccc2[nH]c([S+]([O-])Cc3ncc(C)c(OC)c3C)nc2c1 (stereo not drawn) [Omeprazole, omeprazole]
- k1 retention factor (first-eluting enantiomer) ([1]; 2.5% IPA): 13.24
- k2 retention factor (second-eluting enantiomer) ([1]; 2.5% IPA): 16.18
- k1 retention factor (first-eluting enantiomer) ([1]; 5% EtOH): 12.69
- k2 retention factor (second-eluting enantiomer) ([1]; 5% EtOH): 15.14
- k1 retention factor (first-eluting enantiomer) ([1]; 5% IPA): 5.46
- k2 retention factor (second-eluting enantiomer) ([1]; 5% IPA): 5.46
- k1 retention factor (first-eluting enantiomer) ([1]; 5% MeOH): 25.74
- k2 retention factor (second-eluting enantiomer) ([1]; 5% MeOH): 37.33
- k1 retention factor (first-eluting enantiomer) ([1]; 7.5% EtOH): 6.57
- k2 retention factor (second-eluting enantiomer) ([1]; 7.5% EtOH): 7.20
- k1 retention factor (first-eluting enantiomer) ([1]; 7.5% IPA): 2.88
- k2 retention factor (second-eluting enantiomer) ([1]; 7.5% IPA): 2.88
- k1 retention factor (first-eluting enantiomer) ([1]; 7.5% MeOH): 15.56
- k2 retention factor (second-eluting enantiomer) ([1]; 7.5% MeOH): 21.41
- k1 retention factor (first-eluting enantiomer) ([1]; 10% EtOH): 4.02
- k2 retention factor (second-eluting enantiomer) ([1]; 10% EtOH): 4.02
- k1 retention factor (first-eluting enantiomer) ([1]; 10% IPA): 1.87
- k2 retention factor (second-eluting enantiomer) ([1]; 10% IPA): 1.87
- k1 retention factor (first-eluting enantiomer) ([1]; 10% MeOH): 9.95
- k2 retention factor (second-eluting enantiomer) ([1]; 10% MeOH): 13.05
- k1 retention factor (first-eluting enantiomer) ([1]; 12.5% IPA): 1.33
- k2 retention factor (second-eluting enantiomer) ([1]; 12.5% IPA): 1.33
- k1 retention factor (first-eluting enantiomer) ([1]; 15% EtOH): 1.81
- k2 retention factor (second-eluting enantiomer) ([1]; 15% EtOH): 1.81
- k1 retention factor (first-eluting enantiomer) ([1]; 15% IPA): 1.01
- k2 retention factor (second-eluting enantiomer) ([1]; 15% IPA): 1.01
- k1 retention factor (first-eluting enantiomer) ([1]; 15% MeOH): 6.70
- k2 retention factor (second-eluting enantiomer) ([1]; 15% MeOH): 8.43
